# Test results published in patent publication US8921373B2, “Compounds having TRPV1 antagonistic activity and uses thereof” (Shionogi & Co., Ltd., priority 2010, dated 2014).
# Assays:
# [1] = target: T1, human recombinant TRPV1 (Homo sapiens (Human), UniProt Q8NER1); experiment: TRPV1 pH-Based Assay (Protocol 2, Ca2+ response in TRPV1/CHO cells, Fura-2); assay type: cell-based
# Protocol: (§1) For Protocol 2, a Chinese Hamster Ovary cell line (CHO) that has been engineered to constitutively express human recombinant TRPV1 was used (TRPV1/CHO cells). The TRPV1/CHO cell line was generated as described below.
# TRPV1/CHO cells were seeded in the 96-well clear-bottom black-wall plate (Nunc) at densities of 1-2×10^4 cells/well and grown in 100 μL of culture medium (alpha-MEM supplemented with 10% FBS, 20 mM HEPES, 1 mg/mL geneticin and 1% antibiotic-antimycotic mixed stock solution) for 1-2 days before the experiment.
# (2) The 96-well plate was incubated at 37° C. for 45 min.
# (3) The loading buffer was removed from each well. […] The wells were then refilled with 80 μL of measuring buffer.
# (4) After an incubation at 4° C. for 15 min, the 96-well plate was transferred to FDSS-3000 (Hamamatsu Photonics, Japan).
# (5) The Fura-2 fluorescent intensity was monitored at a wavelength of 340 nm and at 380 nm, respectively, at a rate of 0.5 Hz for a total of 240 seconds. After 16 time points (32 sec) of baseline detection, 20 μL of agonist solution was added to each well. The final volume was 100 μL/well.
# (6) Fluorescence intensity ratio refers to the fluorescence intensity at 340 nm over the fluorescence intensity at 380 nm at a particular time point. The baseline was set as the average of the fluorescent intensity ratios for the first 16 time points before the addition of agonist solution. The maximum response was the highest fluorescent intensity ratio during the 60 time points following addition of agonist solution.
# (7) Maximal signal ratios from each well were calculated as output data using the FDSS-3000 analysis program. Data were analyzed using Excel (Microsoft) and XLfit (idbs) software.
# Two different agonist solutions with different H2SO4 concentrations were used for the pH assay (FIG. 3A). For one half of a 96-well plate one agonist solution was used, for the other half the other agonist solution. The agonist solutions were obtained by diluting sulfuric acid (H2SO4, 1M) with measuring buffer. The concentrations for the two agonist solutions were determined as described above in Section 2 of Protocol 2.
# The sulfuric acid concentrations between the two agonist solutions differed by 0.5 mM. […] After 1:4 dilution of the agonist solutions, the final sulfuric acid concentration was 3.2 mM and 3.3 mM, respectively. The resulting pH value for the pH assay was 5.0 to 5.1.
# Test compounds were dissolved in DMSO to yield 1 mM stock solutions. […] The thereby-obtained solutions were further diluted in measuring buffer (1:100) as 10× stock serial dilutions with a DMSO concentration of 1%. 10 μL of a 10× stock was added into each well at step 3.3.(4) of Protocol 2.
# Steps (1) and (2) of this Assay were the same as steps 2.2.(1) and 2.2.(2) of Protocol 2, respectively.
# (3) The cells were washed twice with 150 μL of measuring buffer (mentioned in 2.2.(3) of Protocol 2, no probenecid). The wells were subsequently refilled with 70 μL of measuring buffer.
# (4) Either 10 μl of measuring buffer or 10 μL of 10× stock serial dilution of test compound (described in 3.2. above) were applied to each well. Usually, only one test compound was tested per 96-well plate. The number of replicates per 96-well plate for a particular antagonist at a particular concentration was 7×2 since two different sulfuric acid concentrations were used per 96-well plate (N=7×2) (FIG. 3).
# Step (5) was the same as 2.2.(4) above.
# (6) Fura-2 fluorescent intensity was monitored as described in 2.2.(5) above. After 16 time points of baseline detection, 20 μL of agonist solution (measuring buffer titrated with H2SO4 to yield pH 5.0-5.1 when mixed 1:4 with the measuring buffer containing test compound) was added to each well (final volume 100 μL/well).
# Steps (7) and (8) were as described in 2.2.(6) and 2.2.(7) above, respectively.
# (1) The pH values of the buffer in the wells of A1→H1 and A7→H7 (longitudinally; FIG. 3) were measured one by one using a portable pH meter.
# [2] = target: T1, human recombinant TRPV1; experiment: TRPV1 Capsaicin-Based Assay (Protocol 2, TRPV1/CHO cells, Fluo-4, FLIPR); assay type: cell-based
# Protocol: as §1
# One day prior to assay, TRPV1/CHO cells were seeded in 96-well clear-bottom black plates (20,000 cells/well) in growth media. On the day of the experiment, the cells were washed with 0.2 mL 1× Hank's Balanced Salt Solution (Life Technologies) containing 1.6 mM CaCl2 and 20 mM HEPES, pH 7.4 (“wash buffer”). Subsequently, the cells were loaded by incubation in 0.1 mL of wash buffer containing Fluo-4 at 3 μM final concentration. After 1 hour, the cells were washed twice with 0.2 mL wash buffer and resuspended in 0.1 mL wash buffer. The plates were then transferred to a Fluorescence Imaging Plate Reader (Molecular Devices). Fluorescence intensity was monitored for 15 seconds to establish a baseline. Subsequently, test compounds diluted in assay buffer (1× Hank's Balanced Salt Solution containing 1 mM CaCl2 and 20 mM HEPES, pH 7.4) containing 1% DMSO were added to the cell plate and fluorescence was monitored for 2 minutes. […] Human TRPV1 was then activated by the addition of 50 μL capsaicin (100 nM final concentration) and plates incubated for an additional 3 min. Data were collected over the entire time course and analyzed using Excel and the curve-fitting formula GraphPad Prism.
# [3] = TRPV1/CHO cells, pH 5.0-5.1, read-out: IC50 value by the pH-Based Assay
# [4] = TRPV1/CHO cells, capsaicin 100 nM final, read-out: IC50 value by the Capsaicin-Based Assay
# [5] = TRPV1/CHO cells, capsaicin 100 nM final, compounds of the invention, read-out: TRPV1 IC50 Potency (Capsaicin-Based Assay), Compound IC50
# T1 sequence (Q8NER1 whole entry): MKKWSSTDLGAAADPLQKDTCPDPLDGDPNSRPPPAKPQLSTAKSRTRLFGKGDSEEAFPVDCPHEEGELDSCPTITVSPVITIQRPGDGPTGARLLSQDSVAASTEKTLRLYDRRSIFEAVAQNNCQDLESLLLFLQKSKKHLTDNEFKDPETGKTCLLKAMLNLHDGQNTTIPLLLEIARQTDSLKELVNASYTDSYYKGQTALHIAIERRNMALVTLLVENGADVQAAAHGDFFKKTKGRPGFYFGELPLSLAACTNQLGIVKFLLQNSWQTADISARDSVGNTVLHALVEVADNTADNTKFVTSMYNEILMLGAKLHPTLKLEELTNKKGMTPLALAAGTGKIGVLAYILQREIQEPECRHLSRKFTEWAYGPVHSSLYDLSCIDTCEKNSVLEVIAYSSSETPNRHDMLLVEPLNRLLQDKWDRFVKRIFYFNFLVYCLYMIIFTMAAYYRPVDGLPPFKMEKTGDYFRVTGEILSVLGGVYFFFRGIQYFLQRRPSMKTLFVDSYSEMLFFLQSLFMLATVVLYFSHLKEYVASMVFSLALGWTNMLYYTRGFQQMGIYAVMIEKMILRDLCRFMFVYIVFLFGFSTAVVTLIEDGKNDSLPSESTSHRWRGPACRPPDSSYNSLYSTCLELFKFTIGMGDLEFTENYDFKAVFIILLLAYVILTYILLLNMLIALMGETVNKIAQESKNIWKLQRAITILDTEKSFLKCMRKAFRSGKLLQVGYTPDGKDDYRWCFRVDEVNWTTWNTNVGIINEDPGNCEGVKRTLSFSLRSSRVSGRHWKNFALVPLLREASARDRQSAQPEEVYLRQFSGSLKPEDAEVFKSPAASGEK
SMILES,"IC50 [1, 3] [nM]","IC50 [2, 4] [nM]",also measured
"Cc1cc(NC(=O)N2CCC(F)(c3ncc(C[C@@H](O)CO)cc3Cl)CC2)ccc1C(F)(F)F [ACI, (R)-4-(3-Chloro-5-(2,3-dihydroxypropyl)pyridin-2-yl)-4-fluoro-N-(3-methyl-4-(trifluoromethyl)phenyl)piperidine-1-carboxamide]",≤ 50,≤ 50,
Cc1cc(NC(=O)N2CC=C(c3ncc(C[C@@H](O)CO)cc3Cl)CC2)ccc1C(F)(F)F [drawing 501],,,"IC50 [2, 5]: 40 nM"
C[C@H]1CN(c2ncc(C[C@@H](O)CO)cc2F)CCN1C(=O)Nc1nc2ccc(Cl)cc2s1 [AEK],≤ 50,≤ 50,
Cc1cc(NC(=O)N2CCC(F)(c3ncc(C[C@H](O)CO)cc3F)CC2)ccc1OC(F)(F)F [drawing 496],,,"IC50 [2, 5]: 46 nM"
Cc1ccc2nc(NC(=O)N3CCN(c4ncc(C[C@H](O)CO)cc4F)C[C@@H]3C)sc2c1 [AEP],≤ 50,≤ 50,
C[C@@H]1CN(c2ncc(C[C@@H](O)CO)cc2F)CCN1C(=O)Nc1nc2ccc(Cl)cc2s1 [drawing 500],,,"IC50 [2, 5]: 8 nM"
C[C@H]1CN(c2ncc(C[C@H](O)CO)cc2F)CCN1C(=O)Nc1nc2ccc(Cl)cc2s1 [AEN],≤ 50,≤ 50,
C[C@H]1CN(C(=O)Nc2nc3ccc(Cl)cc3s2)CCN1c1ncc(C[C@@H](O)CO)cc1F [AFR],≤ 50,≤ 50,
C[C@H]1CN(c2ncc(C[C@@H](O)CO)cc2F)CCN1C(=O)Nc1nc2cc(F)c(F)cc2s1 [AEY],≤ 50,≤ 50,
C[C@H]1CN(c2ncc(C[C@@H](O)CO)cc2Cl)CCN1C(=O)Nc1nc2ccc(F)cc2s1 [ADY],≤ 50,≤ 50,
C[C@@H]1CN(c2ncc(C[C@H](O)CO)cc2F)CCN1C(=O)Nc1nc2ccc(F)cc2s1 [AGZ],≤ 50,≤ 50,
C[C@H]1CN(c2ncc(C[C@@H](O)CO)cc2Cl)CCN1C(=O)Nc1nc2ccc(Cl)cc2s1 [AEE],≤ 50,≤ 50,
"Cc1cc(NC(=O)N2CCC(F)(c3ncc(C[C@H](O)CO)cc3Cl)CC2)ccc1C(F)(F)F [ACS, (S)-4-(3-Chloro-5-(2,3-dihydroxypropyl)pyridin-2-yl)-4-fluoro-N-(3-methyl-4-(trifluoromethyl)phenyl)piperidine-1-carboxamide]",≤ 50,≤ 50,
C[C@H]1CN(c2ncc(C[C@H](O)CO)cc2C(F)(F)F)CCN1C(=O)Nc1nc2ccccc2s1 [AGY],≤ 50,≤ 50,
Cc1ccc2nc(NC(=O)N3CCN(c4ncc(C[C@@H](O)CO)cc4Cl)C[C@@H]3C)sc2c1 [ADZ],≤ 50,≤ 50,
C[C@H]1CN(C(=O)Nc2nc3ccc(Cl)cc3s2)CCN1c1ncc(C[C@H](O)CO)cc1F [AGK],≤ 50,≤ 50,

SMILES,"IC50 [1, 3] [nM]","IC50 [2, 4] [nM]",also measured
O=C(Nc1nc2cc(F)c(F)cc2s1)N1CCN(c2ncc(C[C@H](O)CO)cc2F)CC1 [AFB],,,IC50 [1]: ≤ 50 nM; IC50 [2]: ≤ 50 nM
O=C(Nc1nc2ccc(F)cc2s1)N1CCC(F)(c2ncc(C[C@H](O)CO)cc2Cl)CC1,,,"IC50 [2, 5]: 116 nM"
Cc1cc(NC(=O)N2CCC(F)(c3ncccc3F)CC2)ccc1OC(F)(F)F [reference compound],,,"IC50 ([2]; TRPV1/CHO cells, capsaicin 100 nM final, comparative compounds, read-out: TRPV1 IC50 Potency (Capsaicin-Based Assay), Comparative compound IC50): 100 nM"
"Cc1cc(NC(=O)N2CC=C(c3ncc(C[C@@H](O)CO)cc3Cl)CC2)ccc1OC(F)(F)F [AAS, (R)-4-(3-Chloro-5-(2,3-dihydroxypropyl)pyridin-2-yl)-N-(3-methyl-4-(trifluoromethoxy)phenyl)-5,6-dihydropyridine-1(2H)-carboxamide]",≤ 50,≤ 50,
C[C@H]1CN(C(=O)Nc2nc3cc(F)c(F)cc3s2)CCN1c1ncc(C[C@@H](O)CO)cc1F [AFS],≤ 50,≤ 50,
C[C@H]1CN(c2ncc(C[C@H](O)CO)cc2Cl)CCN1C(=O)Nc1nc2ccc(F)cc2s1 [AEB],≤ 50,≤ 50,
"Cc1cc(NC(=O)N2CCC(F)(c3ncc(C[C@H](O)CO)cc3C)CC2)ccc1OC(F)(F)F [ACM, (S)-4-(5-(2,3-dihydroxypropyl)-3-methylpyridin-2-yl)-4-fluoro-N-(3-methyl-4-(trifluoromethoxy)phenyl)piperidine-1-carboxamide]",≤ 50,≤ 50,
CC1(C)CN(c2ncc(C[C@H](O)CO)cc2F)CCN1C(=O)Nc1nc2ccc(F)cc2s1 [AFT],≤ 50,≤ 50,
"Cc1cc(NC(=O)N2CCC(F)(c3ncc(C[C@@H](O)CO)cc3Cl)CC2)ccc1OC(F)(F)F [ACJ, (R)-4-(3-Chloro-5-(2,3-dihydroxypropyl)pyridin-2-yl)-4-fluoro-N-(3-methyl-4-(trifluoromethoxy)phenyl)piperidine-1-carboxamide]",≤ 50,≤ 50,
"Cc1cc(NC(=O)N2CCC(F)(c3ncc(C[C@@H](O)CO)cc3C)CC2)ccc1OC(F)(F)F [ACF, (R)-4-(5-(2,3-dihydroxypropyl)-3-methylpyridin-2-yl)-4-fluoro-N-(3-methyl-4-(trifluoromethoxy)phenyl)piperidine-1-carboxamide]",≤ 50,≤ 50,
Cc1ccc2nc(NC(=O)N3CCN(c4ncc(C[C@H](O)CO)cc4Cl)C[C@@H]3C)sc2c1 [AEC],≤ 50,≤ 50,
"Cc1cc(C[C@@H](O)CO)cnc1N1CCN(C(=O)Nc2nc3ccc(F)cc3s2)CC1 [ADA, (R)-4-(5-(2,3-dihydroxypropyl)-3-methylpyridin-2-yl)-N-(6-fluorobenzo[d]-thiazol-2-yl)piperazine-1-carboxamide]",≤ 50,≤ 50,
"Cc1cc(NC(=O)N2CCC(F)(c3ncc(C[C@@H](O)CO)cc3F)CC2)ccc1C(F)(F)F [ACO, (R)-4-(5-(2,3-dihydroxypropyl)-3-fluoropyridin-2-yl)-4-fluoro-N-(3-methyl-4-(trifluoromethyl)phenyl)piperidine-1-carboxamide]",≤ 50,≤ 50,
CC1(C)CN(c2ncc(C[C@@H](O)CO)cc2F)CCN1C(=O)Nc1nc2ccc(F)cc2s1 [AFZ],≤ 50,≤ 50,
C[C@H]1CN(c2ncc(C[C@@H](O)CO)cc2Cl)CCN1C(=O)Nc1nc2ccccc2s1 [AEA],≤ 50,≤ 50,
"C[C@@H]1CN(c2ncc(C[C@@H](O)CO)cc2Cl)CCN1C(=O)Nc1nc2ccc(F)cc2s1 [ACU, (R)-4-(3-chloro-5-((R)-2,3-dihydroxypropyl)pyridin-2-yl)-N-(6-fluorobenzo[d]thiazol-2-yl)-2-methylpiperazine-1-carboxamide]",,≤ 50,
